Data on 23 compounds can be found in patent publication US11639350B2, “Heteroaryldihydropyrimidine derivatives and methods of treating hepatitis B infections” (Janssen Pharmaceutica NV, priority 2018, dated 2023).

Read-outs that look alike come from different tables or passages of the source.

As a reminder, the EC50 is the concentration needed to bring the measured effect to its halfway point. As usually defined, the CC50 is the concentration giving 50% cytotoxicity. Low readings indicate harm at low concentration, high ones better tolerance by the cells.

Common to all, as to type: cell-based
One data set relates to HBV. Nature of the data set: HBV inhibitory activity: HBV DNA in the culture medium of HepG2.2.15 cells by q-PCR. The settings on record: HepG2.2.15 cells, 6 days of compound treatment, HBV DNA in culture medium by q-PCR, highest concentration 10 μM, read-out: EC50. The essentials: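 Supernatant HBV DNA quantified by q-PCR after a 6-day compound exposure, with one mid-course medium change, of HepG2.2.15 cells (stably integrated HBV; 40,000 per well, 2% FBS). Eight-point 3-fold series topped at 10 μM for antiviral EC50; separate plates of 5,000 cells per well with 100 μM top give CC50.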

The test system of a further data set is HepG2.2.15 cells. As to the kind of experiment: Cytotoxicity determination in HepG2.2.15 cells (CCK-8). Conditions: 6 days of compound treatment, CCK-8, highest concentration 100 μM. The essentials:
(§1)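 CC50 is from CCK-8 absorbance (450 nm, 630 nm reference) after 2.5 h with reagent. Before that, compounds were applied for six days, top concentration 100 μM, eight threefold dilutions, one mid-course medium change, to stably HBV-integrated HepG2.2.15 cells plated at 5,000/well in 2% FBS.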

Test in data set [1]: as above
Conditions: human, 6 days of compound treatment, CCK-8, highest concentration 100 μM. The essentials: as §1

The mark [2] stands for this setting: Hepatitis B virus, HepG2.2.15, 144 h.

Regarding `CCOC(=O)C1=C([C@H]2CC[C@H](C(=O)O)CO2)NC(c2nccs2)=NC1c1ccc(F)cc1Cl` (single isomer, unassigned) [Compound 363H, (trans)-6-(6-(2-Chloro-4-fluorophenyl)-5-(ethoxycarbonyl)-2-(thiazol-2-yl)-3,6-dihydropyrimidin-4-yl)tetrahydro-2H-pyran-3-carboxylic Acid], the EC50 with HBV came out at 650 nM. This compound showed a CC50 in the data set with HepG2.2.15 cells greater than 100000 nM.
As for `COC(=O)C1=C(C2CCC(NS(C)(=O)=O)C2)NC(c2nccs2)=NC1c1cccc(F)c1Cl` (single isomer, unassigned) [Compound 61D, Methyl 4-(2-chloro-3-fluorophenyl)-6-(3-(methylsulfonamido)-cyclopentyl)-2-(thiazol-2-yl)-1,4-dihydropyrimidine-5-carboxylate], the EC50 in the data set on HBV is 35 nM. The compound also came in with a CC50 in the data set with HepG2.2.15 cells of 33400 nM.
Regarding `COC(=O)C1=C(C2CCN(S(=O)(=O)C3CC(O)C3)CC2)NC(c2nccs2)=NC1c1ccc(F)cc1Cl` (single isomer, unassigned) [Compound 335B, Methyl 4-(2-chloro-4-fluorophenyl)-6-(1-((3-hydroxycyclobutyl)sulfonyl)piperidin-4-yl)-2-(thiazol-2-yl)-1,4-dihydropyrimidine-5-carboxylate], the EC50 with HBV is 13 nM. This compound showed a CC50 with HepG2.2.15 cells of 15200 nM.
The like results for `COC(=O)C1=C(C2CCCN(S(C)(=O)=O)CC2)NC(c2nccs2)=NC1c1ccc(F)cc1Cl` (single isomer, unassigned) [Compound 383D, Methyl 4-(2-chloro-4-fluorophenyl)-6-(1-(methylsulfonyl)azepan-4-yl)-2-(thiazol-2-yl)-1,4-dihydropyrimidine-5-carboxylate] were, in that order, 148 nM and 31500 nM.
As for `COC(=O)C1=C(C2CCN(S(C)(=O)=O)CC2)NC(c2nccs2)=NC1c1ccc(F)cc1Br` (single isomer, unassigned) [Compound 120B, Methyl 4-(2-bromo-4-fluorophenyl)-6-(1-(methylsulfonyl)-piperidin-4-yl)-2-(thiazol-2-yl)-1,4-dihydropyrimidine-5-carboxylate], the EC50 with HBV was 154 nM. In addition, the CC50 in the data set on HepG2.2.15 cells was found to be 16300 nM.
`CCOC(=O)C1=C(C2CCN(S(=O)(=O)C3CC(C)(C(=O)O)C3)CC2)NC(c2nccs2)=NC1c1cccc(F)c1C` (single isomer, unassigned) [Compound 429C, (trans)-3-((4-(−5-(Ethoxycarbonyl)-6-(3-fluoro-2-methylphenyl)-2-(thiazol-2-yl)-3,6-dihydropyrimidin-4-yl)piperidin-1-yl)sulfonyl)-1-methylcyclobutanecarboxylic Acid]: the EC50 in the data set on HBV was found to be 66 nM. The compound further returned a CC50 with HepG2.2.15 cells of 25500 nM.
Regarding `CCOC(=O)C1=C(C2CCN(S(=O)(=O)[C@H]3C[C@H](C(=O)O)C3)CC2)NC(c2nccs2)=NC1c1ccc(F)c(F)c1C` (single isomer, unassigned) [Compound 343C, (trans)-3-((4-(6-(3,4-difluoro-2-methylphenyl)-5-(ethoxycarbonyl)-2-(thiazol-2-yl)-3,6-dihydropyrimidin-4-yl)piperidin-1-yl)sulfonyl)cyclobutanecarboxylic Acid], in the data set on HBV, the EC50 was determined as 14 nM. In the data set on HepG2.2.15 cells, this compound returned a CC50 of 25200 nM.
Regarding `COC(=O)C1=C([C@H]2CC[C@H](C(=O)OC)CC2)NC(c2nccs2)=NC1c1ccc(F)cc1Cl` (stereo partly shown) [Compound 18X], in the data set with HBV, the EC50 was 42 nM. The compound further gave a CC50 in the data set with HepG2.2.15 cells of 27900 nM.
As for `COC(=O)C1=C(C2CCC(S(=O)(=O)N3CCC3)CC2)NC(c2nccs2)=NC1c1ccc(F)c(F)c1Cl` (stereo not shown) [Compound 430, methyl 6-(4-(azetidin-1-ylsulfonyl)cyclohexyl)-4-(2-chloro-3,4-difluorophenyl)-2-(thiazol-2-yl)-1,4-dihydropyrimidine-5-carboxylate], the EC50 with HBV (setting [2]) came to 15 nM. Besides, half-maximal cytotoxicity in data set [1] (CC50 at 6 days) was put at 15100 nM.
`CCOC(=O)C1=C([C@H]2CC[C@H](C(=O)OC)CC2)NC(c2nccs2)=NC1c1cccc(F)c1Cl` (relative stereo) [Compound 22Y, Ethyl 4-(2-chloro-3-fluorophenyl)-6-(trans-4-(methoxycarbonyl)-cyclohexyl)-2-(thiazol-2-yl)-1,4-dihydropyrimidine-5-carboxylate]: the EC50 in the data set on HBV (setting [2]) worked out at 224 nM. This compound had a CC50 at 6 days in data set [1] of 75900 nM.
As for `CCOC(=O)C1=C([C@H]2CC[C@H](C(=O)OC)CC2)NC(c2nccs2)=NC1c1ccc(F)cc1Cl` (single isomer, unassigned) [Compound 20X, Ethyl 4-(2-chloro-4-fluorophenyl)-6-(trans-4-(methoxycarbonyl)-cyclohexyl)-2-(thiazol-2-yl)-1,4-dihydropyrimidine-5-carboxylate], in the data set on HBV (setting [2]), the EC50 was 52 nM. The compound also showed a CC50 at 6 days in data set [1] of 27200 nM.
In the case of `COC(=O)C1=C([C@H]2CC[C@H](NS(C)(=O)=O)CC2)NC(c2ncc(F)cc2F)=NC1c1ccc(F)cc1Cl` (single isomer, unassigned) [Compound 396B, (trans)-Methyl 4-(2-chloro-4-fluorophenyl)-2-(3,5-difluoropyridin-2-yl)-6-(4-(methylsulfonamido)cyclohexyl)-1,4-dihydropyrimidine-5-carboxylate], the 50% effective concentration (EC50) with HBV (setting [2]) was 20 nM. The compound further returned a CC50 at 6 days in data set [1] of 22500 nM.
Turning to `CNS(=O)(=O)N1CCC(C2=C(C(=O)OC)C(c3cccc(F)c3Cl)N=C(c3nccs3)N2)CC1` (single isomer, unassigned) [Compound 115B, 4-(2-Chloro-3-fluoro-phenyl)-6-(1-methylsulfamoyl-piperidin-4-yl)-2-thiazol-2-yl-1,4-dihydro-pyrimidine-5-carboxylic Acid Methyl Ester], the EC50 with HBV (setting [2]) turned out to be 342 nM. Also, the CC50 at 6 days in data set [1] turned out to be 19100 nM.
For the compound `CNC(=O)C1COC(C2=C(C(=O)OC)C(c3cccc(F)c3Cl)N=C(c3nccs3)N2)C1` (stereo not shown) [Compound 263, Methyl 4-(2-chloro-3-fluorophenyl)-6-(4-(methylcarbamoyl)-tetrahydrofuran-2-yl)-2-(thiazol-2-yl)-1,4-dihydropyrimidine-5-carboxylate], the EC50 in the data set with HBV (setting [2]) amounted to 150 nM. Further, the midpoint of cytotoxicity in data set [1], the CC50 at 6 days, lay at 81100 nM.
Turning to `COC(=O)C1=C([C@@H]2CO[C@@H](C(=O)O)C2)NC(c2nccs2)=N[C@H]1c1cccc(F)c1Cl` [Compound 212A], the EC50 in the data set on HBV (setting [2]) is 1010 nM. Further, the CC50 at 6 days in data set [1] was greater than 100000 nM.
The matching figures for `COC(=O)C1=C(C2CCN(S(=O)(=O)[C@H]3CC[C@H](CC(=O)O)CC3)CC2)NC(c2nccs2)=NC1c1ccc(F)cc1Cl` (relative stereo) [Compound 476A, (trans)-2-(4-((4-(6-(2-Chloro-4-fluorophenyl)-5-(methoxycarbonyl)-2-(thiazol-2-yl)-3,6-dihydropyrimidin-4-yl)piperidin-1-yl)sulfonyl)cyclohexyl)acetic Acid]: 14 nM and 30400 nM.
In the case of `COC(=O)C1=C(C2CCN(S(=O)(=O)CCO)CC2)NC(c2nccs2)=NC1c1ccc(F)cc1Cl` (single isomer, unassigned) [Compound 185B, Methyl 4-(2-chloro-4-fluorophenyl)-6-(1-((2-hydroxyethyl)sulfonyl)piperidin-4-yl)-2-(thiazol-2-yl)-1,4-dihydropyrimidine-5-carboxylate], the EC50 in the data set with HBV (setting [2]) is 18 nM. Besides, in data set [1], the midpoint of cytotoxicity, the CC50 at 6 days, lay at 26200 nM.
For the compound `COC(=O)C1=C(C2CCN(C(=O)C(C)(C)C)C2)NC(c2nccs2)=NC1c1ccc(F)cc1Cl` (stereo not shown) [Compound 68, Methyl 4-(2-chloro-4-fluorophenyl)-6-(1-pivaloylpyrrolidin-3-yl)-2-(thiazol-2-yl)-1,4-dihydropyrimidine-5-carboxylate], the EC50 with HBV (setting [2]) was found to be 581 nM. The compound also displayed a CC50 at 6 days in data set [1] of 72900 nM.
With `COC(=O)C1=C(C2CC(C(=O)OC)C2)NC(c2nccs2)=NC1c1ccc(F)cc1Cl` (single isomer, unassigned) [Compound 85C, 4-(2-Chloro-4-fluoro-phenyl)-6-(3-methoxycarbonyl-cyclobutyl)-2-thiazol-2-yl-1,4-dihydro-pyrimidine-5-carboxylic Acid Methyl Ester], the EC50 with HBV (setting [2]) is 600 nM. The same compound displayed a CC50 at 6 days in data set [1] of 95400 nM.
`CCOC(=O)C1=C(C2CCN(S(=O)(=O)[C@H]3C[C@H](C(=O)O)C3)CC2)NC(c2ncc(F)cc2F)=NC1c1ccc(F)c(F)c1Cl` (stereo partly shown) [Compound 352B]: the EC50 in the data set with HBV (setting [2]) turned out to be 11 nM. Moreover, half-maximal cytotoxicity in data set [1] (CC50 at 6 days) was put at 29400 nM.
Take `CCOC(=O)C1=C(C2CCN(S(C)(=O)=O)CC2)NC(c2nccs2)=NC1c1cccc(F)c1Cl` (stereo not shown) [Compound 96B, Ethyl 4-(2-chloro-3-fluorophenyl)-6-(1-(methylsulfonyl)piperidin-4-yl)-2-(thiazol-2-yl)-1,4-dihydropyrimidine-5-carboxylate]: the EC50 in the data set with HBV (setting [2]) worked out at 130 nM. Also, the CC50 at 6 days in data set [1] was determined as 21200 nM.
In the case of `COC(=O)C1=C(C2CCN(S(=O)(=O)c3cccc(C(=O)O)c3)CC2)NC(c2nccs2)=NC1c1cccc(F)c1Cl` (stereo not shown) [Compound 118, 3-((4-(6-(2-Chloro-3-fluorophenyl)-5-(methoxycarbonyl)-2-(thiazol-2-yl)-3,6-dihydropyrimidin-4-yl)piperidin-1-yl)sulfonyl)benzoic Acid], the EC50 in the data set on HBV (setting [2]) was 15 nM. For the same compound, the CC50 at 6 days in data set [1] was 59100 nM.
Regarding `COC(=O)C1=C(C2CCCC(NS(C)(=O)=O)CC2)NC(c2nccs2)=NC1c1ccc(F)cc1Cl` (stereo not shown) [Compound 190, Methyl 4-(2-chloro-4-fluorophenyl)-6-(4-(methylsulfonamido)-cycloheptyl)-2-(thiazol-2-yl)-1,4-dihydropyrimidine-5-carboxylate], the EC50 with HBV (setting [2]) worked out at 78 nM. In data set [1], this compound showed a CC50 at 6 days of 15000 nM.
